Laboratory results from article PMC7072245, “Macromolecular Crowding Increases the Affinity of the PHD of ING4 for the Histone H3K4me3 Mark” (Biomolecules, 2020).
Like-named read-outs stand apart in the source and are kept apart here. Blank lines part the entries; values can stand above or below the molecule they belong to. Where no end group is shown, it is not given here. [ ]: non-standard residue; d: D form. Lys(Me3) = C[N+](C)(C)CCCC[C@H](N)C(=O)O; Lys(Me2) = CN(C)CCCC[C@H](N)C(=O)O

Tests used:
[1] = target: T1, PHD of ING4 (Homo sapiens, UniProt Q9UNL4); assay: NMR titration of ING4-PHD with histone H3 peptides (CSP of W237 amide, 1H-15N HSQC); format: binding
T1 construct: we did the titration by NMR on a sample of 10 µM PHD of ING4
Method: These contained 50 or 10 µM uniformly -^15N enriched PHD in 20 mM sodium phosphate pH 6.5, 50 mM NaCl, 1 mM perdeuterated dithiotreitol, 5% (v/v) ^2H2O, and 0.01% (w/v) NaN3, plus different concentrations of Ficoll 70. […] Thus, the NMR titrations were completed in less than 24 h. NMR spectra were recorded at 25 °C on a BRUKER Avance III 800 spectrometer equipped with a TCI cryogenically cooled probe. At a concentration of 50 µM PHD, ^1H-^15N Heteronuclear Single Quantum Coherence (HSQC) spectra could be recorded in about 2 h with sufficient quality to measure the chemicals shift perturbations on peptide addition. At 10 µM PHD concentration, HSQC were recorded with only 16 t1 points and a ^15N spectral width of 10 ppm. […] In this way, the full titration of ING4-PHD with the histone peptide could be measured in less than 24 h.
Next, we measured the affinity of the binding in presence of Ficoll, by means of a NMR titration of the PHD with H3K4me3 peptide but in presence of 15% Ficoll (Figure 2). For binding analysis, we used the backbone amide signal of amino acid W237 because it experiences a large CSP upon peptide binding and is well isolated in a region of the spectrum with few other signals. […] This makes it necessary to reduce the protein concentration of the experiment.
On the other hand, the presence of 15% Ficoll 70 lowered the signal to noise ratio of the NMR experiment as signals got broader due to the increased viscosity of sample. So, we had to decrease the protein concentration of the experiment but not so much as to lose the signals in the noise. […] In these conditions, we could record ^1H-^15N HSQC experiments in 2 h and complete the titration in less than 1 day.
Once we got the optimum conditions, we did the titration by NMR on a sample of 10 µM PHD of ING4 in the presence of increasing amounts of H3K4me3 peptide (Figure 3).
Titrations at different percentages of Ficoll (0, 5, and 10 %) were done by NMR in a same manner as the titration at 15% Ficoll.

[2] = target: T2, Plant Homeodomain (PHD) of ING4 (uniformly 15N enriched (NMR samples)); assay: NMR titration; 10 µM 15N PHD titrated with peptide, 15% Ficoll 70; 20 mM sodium phosphate pH 6.5, 50 mM NaCl, 1 mM DTT, 25 °C; CSP of W237 amide in 1H-15N HSQC, single site fit; conditions: both partners purified
T2 chain: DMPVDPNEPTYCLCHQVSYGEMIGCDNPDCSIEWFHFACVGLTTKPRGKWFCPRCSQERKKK

[3] = target: T2, Plant Homeodomain (PHD) of ING4; assay: NMR titration; PHD titrated with peptide, 0% Ficoll 70; 20 mM sodium phosphate pH 6.5, 50 mM NaCl, 1 mM DTT, 25 °C; CSP of W237 amide; conditions: both partners purified

Kd [2]: 100000 ± 10000 nM
B1: histone H3 peptide (residues 1-15 plus C-terminal Tyr), unmethylated at lysine 4 (peptide)
peptide: ARTKQTARKSTGGKAY
notes: histone H3 N-terminal tail, residues 1-15; extra Tyr residue at the C-terminus for concentration measurement by UV absorbance; also called H3K4me0; unmethylated histone H3 tail

Kd [2]: 1400 ± 600 nM
B3: histone H3 peptide (residues 1-15 plus C-terminal Tyr) dimethylated at lysine 4 (peptide)
peptide: ART[Lys(Me2)]QTARKSTGGKAY
notes: histone H3 N-terminal tail, residues 1-15; extra Tyr residue at the C-terminus for concentration measurement by UV absorbance; also called H3K4me2

Second part, the molecule before the results:

Molecule: CNCCCC[C@H](NC(=O)[C@@H](NC(=O)[C@H](CCCNC(=N)N)NC(=O)[C@H](C)N)[C@@H](C)O)C(=O)N[C@@H](CCC(N)=O)C(=O)N[C@H](C(=O)N[C@@H](C)C(=O)N[C@@H](CCCNC(=N)N)C(=O)N[C@@H](CCCCN)C(=O)N[C@@H](CO)C(=O)N[C@H](C(=O)NCC(=O)NCC(=O)N[C@@H](CCCCN)C(=O)N[C@@H](C)C(=O)N[C@@H](Cc1ccc(O)cc1)C(=O)O)[C@@H](C)O)[C@@H](C)O [H3K4me1]
Kd [1]: 12000 ± 4000 nM

Molecule: C[C@H](N)C(=O)N[C@@H](CCCNC(=N)N)C(=O)N[C@H](C(=O)N[C@@H](CCCCN(C)C)C(=O)N[C@@H](CCC(N)=O)C(=O)N[C@H](C(=O)N[C@@H](C)C(=O)N[C@@H](CCCNC(=N)N)C(=O)N[C@@H](CCCCN)C(=O)N[C@@H](CO)C(=O)N[C@H](C(=O)NCC(=O)NCC(=O)N[C@@H](CCCCN)C(=O)N[C@@H](C)C(=O)N[C@@H](Cc1ccc(O)cc1)C(=O)O)[C@@H](C)O)[C@@H](C)O)[C@@H](C)O [H3K4me2]
Kd [1]: 1400 ± 600 nM

Molecule: C[C@H](N)C(=O)N[C@@H](CCCNC(=N)N)C(=O)N[C@H](C(=O)N[C@@H](CCCC[N+](C)(C)C)C(=O)N[C@@H](CCC(N)=O)C(=O)N[C@H](C(=O)N[C@@H](C)C(=O)N[C@@H](CCCNC(=N)N)C(=O)N[C@@H](CCCCN)C(=O)N[C@@H](CO)C(=O)N[C@H](C(=O)NCC(=O)NCC(=O)N[C@@H](CCCCN)C(=O)N[C@@H](C)C(=O)N[C@@H](Cc1ccc(O)cc1)C(=O)O)[C@@H](C)O)[C@@H](C)O)[C@@H](C)O [H3K4me3]
Kd [1]: 400 ± 300 nM
Kd ([1]; absence of Ficoll (0%), NMR, 20 mM sodium phosphate pH 6.5, 50 mM NaCl, 25 °C, read-out: KD): 3900 ± 700 nM

B2: histone H3 peptide (residues 1-15 plus C-terminal Tyr) trimethylated at lysine 4 (peptide)
peptide: ART[Lys(Me3)]QTARKSTGGKAY
notes: histone H3 N-terminal tail, residues 1-15; extra Tyr residue at the C-terminus for concentration measurement by UV absorbance; also called H3K4me3; H3K4me3 peptide
Kd [3]: 3900 ± 700 nM
Kd [2]: 400 ± 300 nM
